Measured values taken from patent US8618178B2, “Method and substances for treating T-cell mediated autoimmune diseases” (Eberhard-Karls-Universitaet Tuebingen Universitaetsklinikum, priority 2006, dated 2013).

Experiments:
Format in all cases: cell-based, mouse
IL-12 = IL-12 production by DC, ELISA of culture supernatants; conditions: for effect on IL-12 suppression caused by GSH depletion in DC: exogenous addition, 1 mM
Experimental: (§1) IL-4, IL-10, IL-12 and interferon-γ were determined using the ELISA (enzyme linked immunosorbent assay) set or with the use of individual components from BD BioSciences. IL-23 in the supernatant was determined using the ELISA set (eBioscience). For intracytoplasmic cytokine analyses, the T cells were restimulated with PMA/ionomycin or with APC and peptide in the presence of brefeldin A, then fixed and permeabilized and stained. For the surface staining, anti-CD4 or KJ1-26 antibodies were used; the cytokine antibodies (PE labeled) were all obtained from BD Pharmingen.
As antigen presenting cells (APC), T cell depleted spleen cells from syngenic mice were used. Dendritic cells (DC) which were obtained from bone marrow (BMDC) and cultured with GM-CSF were used for the relevant experiments on day 7 of culturing. For the experiment, in each case an equal number of APC were cultured either with the medium alone, with L-BSO (C8H18N2O3S, 0.5 mM), dimethyl sulfoxide DMSO(C2H6OS), dimethyl fumarate DMF (C6H8O4, dissolved in DMSO, 70 μM), or calcium monomethyl fumarate (MMF; CaC10H10O8, 200 μM). All substances except for MMF (Fumapharm) were purchased from Sigma-Aldrich. At the respective stated times (see below) the cells were either analyzed directly for their GSH content, […] 055.B5 (Sigma-Aldrich) or CpG-DNA 1668 (MWG Biotech) and IL-4 (Stratmann). In order to raise the GSH level again, 1 mM GSH-OEt (C12H21N3O6S; Sigma-Aldrich) or 1 mM NAC (Sigma-Aldrich) was added.

BMDC = test: Measurement of reactive oxygen species (ROS) in DC with dichlorofluorescein, flow cytometry; conditions: for effect on DMF-induced ROS increase in DC: added to DMF, 1 mM
Experimental: For the measurement of reactive oxygen species (ROS) in DC and APC, the fluorescent dye 2′,7′ dichlorofluorescein (H2 DCFDA, Molecular Probes, Eugene, USA) was used. 5×10^5 DC were preincubated in 1 ml of RPMI medium (without mercaptoethanol) for 60 mins at 37° C. in the incubator with 1% DMSO or 10 μg/ml DMF+/−NAC (1 mM) or GSX (1 mM). After this preincubation, 1 μM/ml H2 DCFDA was added and the cells incubated for a further 30 mins at 37° C. Within one hour, the fluorescence produced was detected using flow cytometry (FL1).
(§2) As antigen presenting cells (APC), T cell depleted spleen cells from syngenic mice were used. Dendritic cells (DC) which were obtained from bone marrow (BMDC) and cultured with GM-CSF were used for the relevant experiments on day 7 of culturing. For the experiment, in each case an equal number of APC were cultured either with the medium alone, with L-BSO (C8H18N2O3S, 0.5 mM), dimethyl sulfoxide DMSO(C2H6OS), dimethyl fumarate DMF (C6H8O4, dissolved in DMSO, 70 μM), or calcium monomethyl fumarate (MMF; CaC10H10O8, 200 μM). All substances except for MMF (Fumapharm) were purchased from Sigma-Aldrich. At the respective stated times (see below) the cells were either analyzed directly for their GSH content, used for T cell stimulation or stimulated for […] with Escherichia coli lipopolysaccharides 055.B5 (Sigma-Aldrich) or CpG-DNA 1668 (MWG Biotech) and IL-4 (Stratmann). In order to raise the GSH level again, 1 mM GSH-OEt (C12H21N3O6S; Sigma-Aldrich) or 1 mM NAC (Sigma-Aldrich) was added.
For testing the potential of pharmaceutical substances to induce the ROS, the following procedure was developed: for the measurement of reactive oxygen species (ROS) in cells, the fluorescent dye 2′,7′ dichlorofluorescein (H2 DCFDA) is used. The absorption spectrum of the substance is 492-495 nm and the emission spectrum lies in the range between 517-527 nm. On induction of cell stress, e.g., by the administration of ROS-causing reagents, oxidation of the H2 DCFDA to DCFDA+H2 occurs. The fluorescence arising as a result can be detected using flow cytometry (FL1).

IL-23 = IL-23 production by DC, ELISA of culture supernatants; conditions: GSH-OEt added to DMF
Experimental: as §1
as §2, with “added. The GSH reservoirs in mice were depleted by feeding with DMF or MMF, and in man by treatment with Fumaderm®.” for “added.”

IL-10 = IL-10 production by DC, ELISA of culture supernatants; conditions: GSH-OEt added to DMF
Experimental: as §1
as §2, with “All substances except for MMF (Fumapharm) were purchased from Sigma-Aldrich.” left out, “In order to raise the GSH level again, 1 mM GSH-OEt (C12H21N3O6S; Sigma-Aldrich) or 1 mM NAC (Sigma-Aldrich) was added.” left out

SMILES | effect on IL-12 suppression caused by GSH depletion in DC (IL-12) | effect on DMF-induced ROS increase in DC (BMDC) | IL-23 production in DC, added to DMF (IL-23) | IL-10 production in DC, added to DMF (IL-10) | IL-12 production by DC (IL-12; after stimulation with LPS) | intracellular ROS in DC (BMDC; dichlorofluorescein, flow cytometry)
CCOC(=O)CNC(=O)[C@H](CS)NC(=O)CC[C@H](N)C(=O)O [GSH-OEt, GSH ethyl ester] | neutralized the IL-12 suppression | completely neutralized | restored IL-23 production | decreased IL-10 production | – | –
OO [H2O2, hydrogen peroxide] | – | – | – | – | lower the production of IL-12 | induction of ROS
CC(=O)N[C@@H](CS)C(=O)O [NAC, N-acetylcysteine] | same effects as GSH-OEt | completely neutralized | – | – | – | –
